Strand notation (5' to 3'): a small letter for the sugar, then the base; units joined by * are phosphorothioate-linked, units joined directly phosphodiester-linked; [ ] holds rarer units or linkages, { } end groups; capitals alone tell only the bases. {NH2} = amine modification, hexylamine terminal group for chemical coupling; {C6-FAM} = fluorescein label attached via 5'-amine; [invdT] = inverted (3'-3') thymidine; m = 2'-O-methyl; r = 2'-OH (RNA); f = 2'-fluoro
How the values were obtained:
LNCaP cells = assay: Cell proliferation assay (BrdU ELISA), targeted killing; format: cell-based; settings: for effect on LNCaP cell viability: entire concentration range
Protocol: Effects on LNCaP cell viability were assessed in a cell proliferation assay based on chemiluminescent detection of BrdU described below (Cell Proliferation ELISA, BrdU (Roche, Indianapolis, Ind.). PC-3 cells were used as a control cell line.
Media from LNCaP (PSMA+) or PC3 (PSMA−) cells growing in 15 cm plates was aspirated off then cells were washed with 10 mL 1×PBS. Cells were trypsinized for 30 sec at 37° C. Following trypsinization, 8 mL 10% FBS media was used to quench trypsin. […] Following spin the media was aspirated off and the cell pellet was re-suspended with 10 mL complete media. The cell density was adjusted to 200,000 cells/mL. 50 μl of cells/well was added to collagen coated black 96-well plates (10,000 cells/well). […] Following overnight incubation 25 μl of media, aptamer or antibody was added to each well with the final volume in the well being 100 μl and incubated at 37° C. in 5% CO2 for designated time length. […] After 2 days 20 μl BrdU labeling reagent (100×) is mixed with 2 mL of complete media. […] After incubation, the media was removed, and the assay was completed following the manufacturer's protocol: 200 μl/well FixDenat solution was added to each well and incubated for 30 min at RT. Following removal of FixDenat solution 100 μl anti-BrdU POD Fab fragment solution (Luminol/4-iodophenol) was added to each well and incubated for 90 min at RT. After incubation anti-BrdU POD solution was removed and plates were washed with 200 μl/well of washing solution three times with 5 min RT incubations. 100 μl of substrate solution was added to each well and cells were incubated for 3 min at RT in the dark. The plates were read using a luminescence program with a 1 sec count on a Packard TopCount Microplate Scintillation and Luminescence Counter.

LNCaP cells (PSMA+) = assay: LNCaP FACS binding assay with fluorescein-labeled aptamers; format: cell-based; settings: FACS analysis; scrambled A9 negative control
Protocol: To prepare aptamers for the FACS assay, PSMA aptamers were serially diluted (0-1 uM) in FACS buffer (1×DPBS w/Ca^++/Mg^++ (Gibco, Carlsbad, Calif.) supplemented with 10 mg/mL salmon sperm DNA & 0.2% Na Azide), in a V-bottom 96 well plate, at the concentrations to be tested. LNCaP and PC-3 cells (ATCC, Manassas, Va.) were harvested with trypsin, and 200,000 cells/well were counted, washed once with 1×DPBS (with Ca^++ and Mg^+) and resuspended in 200 μl of FACS Buffer. The 200 μl of cells in FACS buffer were added to individual wells of a new 96 well plate, pelleted by centrifugation (1300 rpm for 5 minutes), and resuspended in 100 μl of the appropriate concentration of diluted aptamer. FACS buffer, a-PSMA antibody (3C6) (Northwest Biotherapeutics, Bothell, Wash., Cat #: 60-5002) and an irrelevant fluorescein isothiocyanate (“FITC”) mouse IgG1 isotype control antibody (BD Pharmingen, San Diego, Calif., Cat#: 554679) were used as controls. The wells of aptamer/cell mixture were incubated at room temperature for 20-30 minutes.
After incubation, 180 μl of FACS buffer (plus 10 mg/mL ssDNA, and 0.2% Na Azide) was added to each well to quench the reaction and cells were pelleted by centrifugation.
Anti-fluorescein/Oregon Green®, rabbit IgG fraction, Alexa Fluor® 488 conjugate (Molecular Probes, Eugene, Oreg., Cat#: A11090) was diluted 1:100 in FACS buffer (100 μl/well) as the secondary antibody for the aptamer-FITC conjugates and FITC-mouse IgG isotype control. FITC Rat anti-mouse IgG1 (A85-1) (BD Pharmingen, San Diego, Calif., Cat#: 553443) was diluted in 1:100 in FACS Buffer as the secondary for the α-PSMA antibody. After centrifugation, the cell pellets were resuspended in 100 μl of the appropriate diluted secondary antibody, and incubated 10 minutes at room temperature. After incubation, 180 μl of FACS buffer was added to each well to quench the reaction, and cells were pelleted by centrifugation.
A tertiary antibody which recognizes the Alexa Fluor® 488 goat anti-rabbit IgG was prepared to further amplify the Alexa Fluor signal. Alexa Fluor® 488 goat anti-rabbit IgG (H+ L) (Molecular Probes, Eugene, Oreg., Cat#: A11034) was diluted 1:100 in FACS buffer, and the pelleted cells were resupsended in 100 μl of the tertiary antibody and incubated for 10 minutes at room temperature. […]
Cell samples were analyzed on a FACS Scan machine (Becton Dickinson, San Jose, Calif.) under the following parameters: FSC/SSC, FL-1/FSC, FL-3/FSC. The unstained and/or isotype controls were used to establish gating parameters, and the data was analyzed using Cell Quest Pro software version 5.1.1 (Becton Dickinson Immunocytometry Systems, San Jose, Calif.).

[1] = Plasma stability time course assay; format: in vitro ADME; settings: 95% human plasma, 37° C.
Protocol: Plasma stability of each construct was measured using a plasma stability time course assay over 0, 1, 3, 10, 30, and 100 hours. A reaction was set up for each aptamer tested in an eppendorf tube using 95% human plasma (20 μl per time point), an appropriate concentration of aptamer (determined by the highest predicted dosing level (CMax)), and a sufficient amount of spiked 5′-end labeled aptamer such that a 1:10 dilution of the reaction will be over 1000 cpm, brought to total volume with 1×PBS. When assembling the reaction, the plasma was added last, and the reactions were immediately added to a 37° C. heat block. A reaction for each aptamer tested containing 1×PBS instead of plasma was used as a 0 hour time point. At each designated time point, 20 μl was withdrawn from each reaction and added to an appropriately labeled eppendorf tube containing 200 μl of formamide loading dye, and was immediately snap frozen in liquid nitrogen and stored at −20° C. After all the samples were collected 20 μl of each plasma sample/loading dye was aliquoted into separate tubes, and 2 μl of 1% SDS was added to each tube (final SDS concentration 0.1%). The samples containing 0.1% SDS were heated at 90° C. for 10-15 minutes. […]
The percentage of the parent aptamer remaining for each time-point was determined by quantifying the parent aptamer band and dividing by the total counts in the lane. […]

ECD PSMA = target: T1, ECD PSMA (Homo sapiens, UniProt Q04609); assay: Dot blot binding assay (nitrocellulose filter) with purified ECD PSMA; settings: Round 9 PSMA rGmH clones; 8 point PSMA titration, without tRNA
T1 construct: vector-derived N-terminal linker […]; made in house; host or cells: 293 Freestyle cells, pSecTag2B vector
Source text: Protein Purification of ECD of PSMA: An I.M.A.G.E. clone (5202715) encoding full length recombinant human PSMA was purchased from Open Biosystems (Clone EHS1001-18533, Huntsville, Ala.). PCR was used to amplify the extracellular portion of the full length clone. An oligo with an N-terminal histidine tag was designed to engineer a construct which lacks the transmembrane domain residues 1-44. The his-tagged extracellular domain (ECD) was subcloned into the pSecTag2B expression vector (Invitrogen, Carlsbad, Calif.). The ECD of PSMA was purified in house from transfected 293 Freestyle cells (ATCC, Manassas, Va.). The amino acid sequence of the expressed protein comprising an N-terminal linker sequence of […] followed by eight Histidines is listed below: […] VSDr[…]a[…]r[…]rYV […] (SEQ ID NO 5)
Dot Blot Binding Analysis. Dot blot binding assays were performed throughout the selections to monitor the protein binding affinity of the pools. For initial pool screening, trace ^32P-labeled pool RNA was combined with PSMA and incubated at room temperature for 30 min in 1×SHMCK buffer pH 7.4 (20 mM Hepes pH 7.4, 120 mM NaCl, 5 mM KCl, 1 mM MgCl2, 1 mM CaCl2) plus 0.1 mg/mL tRNA in a final volume of 30 μl. The mixture was applied to a dot blot apparatus (Schleicher and Schuell Minifold-1 Dot Blot, Acrylic, Keene, N.H.), assembled (from top to bottom) with nitrocellulose, nylon, and gel blot membranes. RNA that is bound to protein is captured on the nitrocellulose filter; whereas the non-protein bound RNA is captured on the nylon filter. […] The Round 9 pool was cloned and screened in a single point dot blot assay using 100 nM PSMA (0 nM PSMA was used as a negative control). Clone transcripts were 5′ end labeled with ^32-P ATP. Likely binders were than assayed for KD determination by the blot assay conditions described directly above, but without tRNA, using an 8 point PSMA titration with a constant RNA concentration. […] Both of the clones screened were unique sequences in the Round 9 selection pool.
In order to identify the core structural elements required for ARC955 binding to PSMA, the 3′-boundaries of the clone was determined through alkaline hydrolysis. The parent RNA transcript was labeled at the 5′-end with γ-^32P ATP and T4 polynucleotide kinase. Radiolabeled ligands were subjected to partial alkaline hydrolysis and then selectively bound in solution to ECD PSMA (purified in house) at 100 nM before being passed through nitrocellulose filters (Centrex MF 1.5 mL, 0.45 μm, Schleicher & Schuell, Keene N.H.). Retained oligonucleotides were resolved on 8% denaturing polyacrylamide gels. The smallest oligonucleotide bound to PSMA defined the 3′-boundary. On the basis of the boundary experiments as well as visual inspection of predicted folds, truncated constructs were synthesized. Clones were then assayed by dot blot as previously described to determine their KD. […] The binding curve for ARC1091 in the dot blot assay is depicted in FIG. 5A, and the predicted secondary structure of ARC1091 is depicted in FIG. 5B. The KD and maximum % bound for the 3 minimized constructs with the overall highest PSMA affinity, as determined by a dot blot binding assay, are listed in Table 4. For the minimized rGmH aptamers described in Table 5 below, the guanosine triphosphates are 2′-OH and the adenosines triphosphates, cytidine triphosphates and uridine triphosphates are 2′-OMe. Unless noted otherwise, the individual sequences are represented in the 5′ to 3′ orientation. In some embodiments, the invention comprises aptamers with a nucleic acid sequence as described in Table 4 below. In some embodiments, the nucleic acid sequence of an aptamer described in Table 4 below additionally comprises a 3′ cap (e.g., an inverted dT cap), and/or 5′ amine (NH2) modification to facilitate chemical coupling, and/or conjugation to a high molecular weight, non-immunogenic compound (e.g., PEG). […]

T1 sequence (Q04609 with tags, fused parts or gaps): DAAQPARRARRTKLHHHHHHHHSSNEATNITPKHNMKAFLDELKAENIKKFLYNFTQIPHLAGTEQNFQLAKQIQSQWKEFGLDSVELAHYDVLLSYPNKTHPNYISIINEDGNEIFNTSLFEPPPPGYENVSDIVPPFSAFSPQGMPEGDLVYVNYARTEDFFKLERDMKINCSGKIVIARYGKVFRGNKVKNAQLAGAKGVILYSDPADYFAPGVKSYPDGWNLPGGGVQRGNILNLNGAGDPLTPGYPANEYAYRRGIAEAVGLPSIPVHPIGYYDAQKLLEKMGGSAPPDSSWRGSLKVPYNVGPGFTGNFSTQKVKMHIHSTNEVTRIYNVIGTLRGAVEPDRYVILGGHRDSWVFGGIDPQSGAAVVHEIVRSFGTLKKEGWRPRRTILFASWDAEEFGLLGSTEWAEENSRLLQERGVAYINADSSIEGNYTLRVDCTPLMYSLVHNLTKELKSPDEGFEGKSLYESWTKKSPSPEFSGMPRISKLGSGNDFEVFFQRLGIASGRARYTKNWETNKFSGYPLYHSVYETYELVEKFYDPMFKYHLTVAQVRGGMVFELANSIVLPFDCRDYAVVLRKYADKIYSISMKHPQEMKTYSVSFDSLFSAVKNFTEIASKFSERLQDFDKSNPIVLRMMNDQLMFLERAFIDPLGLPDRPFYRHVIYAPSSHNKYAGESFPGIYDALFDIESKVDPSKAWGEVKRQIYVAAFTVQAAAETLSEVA

Row | Compound | competition with fluorescently labeled anti-PSMA antibody for binding to the surface of LNCaP cells (LNCaP cells (PSMA+)) | effect on LNCaP cell viability (LNCaP cells) | other results
1 | O=c1c(-c2ccc(O)cc2)coc2cc(O)cc(O)c12 [Genistein, reference compound] | – | – | effect in cytotoxicity assays at 25 μM (LNCaP cells; positive control, 25 μM): partial inhibition; effect in cytotoxicity assays at 150 μM (LNCaP cells; positive control, 150 μM): complete cell killing
2 | C6 FAM-GGAGGACCGAAAAAGACCUGACUUCUAUACUAAGUCUACGUUCCUCC-3T (2'-fluoro at CU, RNA at AG, [invdT] at 3' end, 5' {C6-FAM}, backbone not given here) [ARC710, fluorescently labeled A9 minimer] | effectively competes | – | –
3 | NH2-mCmGmGmAfCfCmGAAfCAmAmGmGmCfCfUGAfCfUfUfCfUAfUAfCfUAAmGmCmCmUAfCmGfUmUmCmCmG-3T ({NH2}-mCmGmGmAfCfCmGrArAfCrAmAmGmGmCfCfUrGrAfCfUfUfCfUrAfUrAfCfUrArAmGmCmCmUrAfCmGfUmUmCmCmG[invdT]; further chemistry not fully specified) [ARC1113, ribo-containing aptamer based on ARC 591 with fully-stabilized helical stems and a 3′-cap] | – | – | half life (T1/2) in plasma [1]: 20 h
4 | UAAUACGACUCACUAUAGGGAGAGGAGAGAACGUUCUACUAUGGGUGGCUGGGAGGGGAAGAGGGAGUAGGUCGAUCGAUCGAUCAUCGAUG [ARC955] | – | no intrinsic effect on cell viability | Kd (ECD PSMA): 9 nM
5 | c6 fam-mCmGmGmAfCfCmGAAAAmAmGmAmCfCfUGAfCfUfUfCfUAfUAfCfUAAmGmUmCmUAfCmGfUmUmCmCmG-3T (CGGACCGAAAAAGACCUGACUUCUAUACUAAGUCUACGUUCCG; sugars from the 5' end mmmmffmrrrrmmmmffrrfffffrfrffrrmmmmrfmfmmmm, [invdT] at 3' end, 5' {C6-FAM}, backbone not given here) [ARC711, fluorescently labeled A9 minimer] | effectively competes | – | –
6 | mCmGmGmAfCfCmGAAAAmAmGmAmCfCfUGAfCfUfUfCfUAfUAfCfUAAmGmUmCmUAfCmGfUmUmCmCmG-3T (CGGACCGAAAAAGACCUGACUUCUAUACUAAGUCUACGUUCCG; sugars from the 5' end mmmmffmrrrrmmmmffrrfffffrfrffrrmmmmrfmfmmmm, [invdT] at 3' end, backbone not given here) [ARC942, minimized A9 aptamer] | – | no intrinsic effect on cell viability | –
